Laboratory results taken from EP4603105A1, “PHARMACEUTICAL COMPOSITION CONTAINING CYCLIC COMPOUND HAVING SELECTIVE KRAS INHIBITORY EFFECT AGAINST HRAS AND NRAS” (CHUGAI SEIYAKU KABUSHIKI KAISHA, priority 2022, dated 2024).
pIC50: −log10 of the molar value. *1 amine or outer side, *2 acyl side, *3 side chain or, on linkers, in order; H or OH if unused. Where a SMILES comes first, the peptide text is derived from it. Bridges are numbered along the chain shown (N, C = ends). [ ]: non-standard residue; d: D form. The star is where a group is joined. hPhe(3-Cl-4-CF3) = N[C@@H](CCc1ccc(C(F)(F)F)c(Cl)c1)C(=O)O; X42 = Cc1ccc(C[C@@H](C(=O)[*:2])N(CCC(F)(F)F)[*:1])cc1; NMeGly(cPent) = CN[C@H](C(=O)O)C1CCCC1; NMeD = CN[C@@H](CC(=O)O)C(=O)O; NMeL = CN[C@@H](CC(C)C)C(=O)O; Morpholide = C1CN(*)CCO1; NMeA = CN[C@@H](C)C(=O)O; Ac5c = NC1(C(=O)O)CCCC1; Aze = O=C(O)[C@@H]1CCN1; Sar = CNCC(=O)O

What was measured:
[1] = system: human lung cancer strain NCI-H441; type: cell-based
How it was run: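 Proliferation was scored by […] measured after the reagent was added to cultures kept at 37°C in 5% carbon dioxide.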

[2] = molecular target: GDP-bound NRAS wild-type protein (Homo sapiens, UniProt P01111); experiment: Binding to NRAS by surface plasmon resonance (SPR), KD and KD ratio to KRAS
Sequence of GDP-bound NRAS wild-type protein (P01111 whole entry): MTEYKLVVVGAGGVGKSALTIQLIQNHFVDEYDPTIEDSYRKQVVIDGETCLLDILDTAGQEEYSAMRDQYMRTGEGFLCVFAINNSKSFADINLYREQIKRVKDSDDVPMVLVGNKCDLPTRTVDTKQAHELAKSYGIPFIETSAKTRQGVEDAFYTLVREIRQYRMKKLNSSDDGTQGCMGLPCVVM
How it was run: (§1)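 SPR, 30°C: Avi-biotin RAS·GDP captured via Biotin CAPture (~100–300 RU); running buffer HBS pH 7.4, 1 mM DTT, 10 mM MgCl2, 0.01% Tween 20, 10 µM GDP, 4% DMSO. Single-cycle kinetics, 100 µL/min, 75 s injections; 1:1 model → KD.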

HRAS wild-type protein = HRAS wild-type protein (Homo sapiens, UniProt P01112); experiment: Binding to HRAS by surface plasmon resonance (SPR), KD and KD ratio to KRAS
Sequence of HRAS wild-type protein (P01112 whole entry): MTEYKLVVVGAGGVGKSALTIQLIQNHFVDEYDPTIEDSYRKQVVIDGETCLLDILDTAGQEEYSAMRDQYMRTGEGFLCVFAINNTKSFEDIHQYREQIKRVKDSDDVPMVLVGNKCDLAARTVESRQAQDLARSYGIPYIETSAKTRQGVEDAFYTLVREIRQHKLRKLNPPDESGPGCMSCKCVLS
How it was run: as §1

[3] = ratio of KD for GDP-bound NRAS wild-type protein to KD for KRAS
[4] = ratio of KD for HRAS wild-type protein to KD for KRAS
[5] = ratio of the KD value with respect to GDP-bound NRAS wild-type protein to the KD value with respect to KRAS
[6] = ratio of the KD value with respect to HRAS wild-type protein to the KD value with respect to KRAS

| SMILES | pIC50 [1] | NRAS /KRAS [2, 3] | HRAS /KRAS (HRAS wild-type protein; [4]) | NRAS /KRAS [2, 5] | HRAS /KRAS (HRAS wild-type protein; [6]) | NRAS /KRAS ([2]; ratio of KD value for GDP-bound NRAS wild-type protein to KD value for KRAS (SPR)) | HRAS /KRAS (HRAS wild-type protein; ratio of KD value for HRAS wild-type protein to KD value for KRAS (SPR)) |
| --- | --- | --- | --- | --- | --- | --- | --- |
| CCO[C@@H]1C[C@H]2C(=O)NC3(CC(C)(C)C3)C(=O)N(C)[C@@H](C3CCCC3)C(=O)N(C)[C@H](C(=O)N3CCCCC3)CC(=O)N(C)[C@H]3CCCCCc4ccc(cc4)C[C@@H](C(=O)N(C)CC(=O)N[C@@H](CCc4ccc(C(F)(F)F)c(OC)c4)C(=O)N2C1)N1CC/C=C\C[C@@H](C1=O)N(C)C(=O)CN(C)C(=O)[C@H]([C@@H](C)CC)NC3=O [PP3036] | 8.10 | A (a compound having 10 or more and less than 20 is denoted as A) | B (a compound having 3 or more and less than 10 is denoted as B) | – | – | – | – |
| CC[C@H](C)[C@@H]1NC(=O)[C@H](CC(C)C)N(C)C(=O)C[C@@H](C(=O)N2CCOCC2)N(C)C(=O)[C@H](C2CCCC2)N(C)C(=O)C2(CCC2)NC(=O)[C@@H]2C[C@@H](OC)CN2C(=O)[C@H](CCc2cc(F)c(C(F)(F)F)c(F)c2)NC(=O)CN(C)C(=O)[C@H](Cc2ccc(C(F)(F)F)cc2)N2CCCCC[C@@H](C2=O)N(C)C(=O)CN(C)C1=O [PP1016] | 7.21 | A (a compound having 10 or more and less than 20 is denoted as A) | B (a compound having 3 or more and less than 10 is denoted as B) | – | – | – | – |
| CC[C@H](C)[C@@H]1NC(=O)[C@H](CC(C)C)N(C)C(=O)C[C@@H](C(=O)N2CCOCC2)N(C)C(=O)[C@H](C2CCCC2)N(C)C(=O)C2(CCCC2)NC(=O)[C@@H]2CCCN2C(=O)[C@H](CCc2ccc(C(F)(F)F)c(Cl)c2)NC(=O)CN(C)C(=O)[C@H](Cc2ccc(C)cc2)N(CCC(F)(F)F)C(=O)[C@@H]2CCN2C(=O)[C@H](C)N(C)C1=O [PP0091] ([NMeL]I[NMeA][Aze][X42][Sar][hPhe(3-Cl-4-CF3)]P[Ac5c][NMeGly(cPent)][NMeD]-Morpholide; lactam N-11) | 8.39 | C (A compound having a KD ratio of 0.1 or more and less than 3 is denoted as C) | B (a compound having 3 or more and less than 10 is denoted as B) | – | – | – | – |
| CCO[C@@H]1C[C@H]2C(=O)NC3(CC(C)(C)C3)C(=O)N(C)[C@@H](C3CCCC3)C(=O)N(C)[C@H](C(=O)N(C)C)CC(=O)N(C)[C@@H](CC(C)C)C(=O)N[C@@H]([C@@H](C)CC)C(=O)N(C)CC(=O)N(C)[C@H]3C/C=C\CCN(C3=O)[C@@H](Cc3ccc4c(c3)CCC4(F)F)C(=O)N(C)CC(=O)N[C@@H](CCc3ccc(C(F)(F)F)c(OC)c3)C(=O)N2C1 [PP2695] | 8.42 | A (a compound having 10 or more and less than 20 is denoted as A) | B (a compound having 3 or more and less than 10 is denoted as B) | – | – | – | – |

Continued, in another order:

| pIC50 [1] | SMILES | NRAS /KRAS [2, 3] | HRAS /KRAS (HRAS wild-type protein; [4]) | NRAS /KRAS [2, 5] | HRAS /KRAS (HRAS wild-type protein; [6]) | NRAS /KRAS ([2]; ratio of KD value for GDP-bound NRAS wild-type protein to KD value for KRAS (SPR)) | HRAS /KRAS (HRAS wild-type protein; ratio of KD value for HRAS wild-type protein to KD value for KRAS (SPR)) |
| --- | --- | --- | --- | --- | --- | --- | --- |
| 7.68 | CCO[C@@H]1C[C@H]2C(=O)NC3(CC(C)(C)C3)C(=O)N(C)[C@@H](C3CCCC3)C(=O)N(C)[C@H](C(=O)N(C)CC)CC(=O)N(C)[C@@H](C3CC3)C(=O)N[C@@H]([C@@H](C)CC)C(=O)N(C)CC(=O)N(C)[C@H]3C/C=C\CCN(C3=O)[C@@H](Cc3ccc(C(F)(F)F)cc3)C(=O)N(C)CC(=O)N[C@@H](CCc3ccc(C(F)(F)F)c(OC)c3)C(=O)N2C1 [PP1981] | – | – | A (a compound having 10 or more and less than 20 is denoted as A) | A (a compound having 10 or more and less than 20 is denoted as A) | – | – |
| 8.77 | CCCO[C@@H]1C[C@H]2C(=O)NC3(CC(C)(C)C3)C(=O)N(C)[C@@H](C3CCCC3)C(=O)N(C)[C@H](C(=O)N(C)C)CC(=O)N(C)[C@H]3CCCCc4ccc(cc4)C[C@@H](C(=O)N(C)CC(=O)N[C@@H](CCc4ccc(C(F)(F)F)c(OC)c4)C(=O)N2C1)N1CC/C=C\C[C@@H](C1=O)N(C)C(=O)CN(C1CC1)C(=O)[C@H]([C@@H](C)CC)NC3=O [PP3082] | B (a compound having 3 or more and less than 10 is denoted as B) | B (a compound having 3 or more and less than 10 is denoted as B) | – | – | – | – |
| 8.74 | CCC[C@H]1C(=O)N[C@@H]([C@@H](C)CC)C(=O)N(C)CC(=O)N(C)[C@H]2C/C=C\CCN(C2=O)[C@@H](Cc2ccc(C(F)(F)F)cc2)C(=O)N(C)CC(=O)N[C@@H](CCc2cc(F)c(C(F)(F)F)c(F)c2)C(=O)N2C[C@H](OCC)C[C@H]2C(=O)NC2(CC(C)(C)C2)C(=O)N(C)[C@@H](C2CCCC2)C(=O)N(C)[C@H](C(=O)N(C)C)CC(=O)N1C [PP1645] | – | – | – | – | A (a compound having 10 or more and less than 20 is denoted as A) | A (a compound having 10 or more and less than 20 is denoted as A) |
| 8.72 | CCO[C@@H]1C[C@H]2C(=O)NC3(CC(C)(C)C3)C(=O)N(C)[C@@H](C3CCCC3)C(=O)N(C)[C@H](C(=O)N(C)CC)CC(=O)N(C)[C@H]3CCCCCCc4ccc(cc4)C[C@@H](C(=O)N(C)CC(=O)N[C@@H](CCc4ccc(C(F)(F)F)c(OC)c4)C(=O)N2C1)N1CC/C=C\C[C@@H](C1=O)N(C)C(=O)CN(C)C(=O)[C@H]([C@@H](C)CC)NC3=O [PP2260] | – | – | A (a compound having 10 or more and less than 20 is denoted as A) | A (a compound having 10 or more and less than 20 is denoted as A) | – | – |
